Here are results for two molecules from patent US20250250606A1, “BIOELECTROCHEMICAL DETERMINATION OF LACTATE” (DIRECTSENS GMBH, priority 2022, published 2025).

A word on the Km: it is the concentration of substrate that gives half-maximal velocity. By kcat is commonly meant the number of substrate molecules converted per active site and unit of time at saturation. A word on the kcat/Km: it is the second-order rate constant that governs catalysis at low substrate concentration.

The target of data set [1] is T1, Lactobacillus johnsonii lactate dehydrogenase LjLDH, SEQ ID NO: 59, N-terminal 6xHis/HRV 3C tag (SEQ ID NO: 250) (Lactobacillus johnsonii, UniProt A0A7D9N8I3).
T1 sequence (A0A7D9N8I3 1-412): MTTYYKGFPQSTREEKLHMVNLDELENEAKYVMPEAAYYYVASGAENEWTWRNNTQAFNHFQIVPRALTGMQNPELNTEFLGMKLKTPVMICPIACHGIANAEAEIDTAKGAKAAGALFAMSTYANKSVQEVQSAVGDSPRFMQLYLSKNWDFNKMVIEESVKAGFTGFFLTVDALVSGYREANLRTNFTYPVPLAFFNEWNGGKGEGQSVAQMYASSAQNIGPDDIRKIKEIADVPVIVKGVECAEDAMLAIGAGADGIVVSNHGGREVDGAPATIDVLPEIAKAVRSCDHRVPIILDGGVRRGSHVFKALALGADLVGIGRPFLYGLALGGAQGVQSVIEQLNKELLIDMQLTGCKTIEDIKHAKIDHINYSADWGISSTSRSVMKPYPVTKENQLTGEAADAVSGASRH
Briefly: Apparent steady-state kinetics of L-lactate oxidation with DCIP as electron acceptor. Type of data set: biochemical. The note with it: L-lactate 0.125 to 64 mM, DCIP 120 μM, 11 mM PBS pH 7.4, 30° C.

Data set [2] addresses T2, Lactobacillus helsingborgensis lactate dehydrogenase LhLDH, SEQ ID NO: 13, N-terminal 6xHis/HRV 3C tag (SEQ ID NO: 250) (Lactobacillus helsingborgensis, UniProt A0A0F4LW09).
T2 sequence (A0A0F4LW09 1-409): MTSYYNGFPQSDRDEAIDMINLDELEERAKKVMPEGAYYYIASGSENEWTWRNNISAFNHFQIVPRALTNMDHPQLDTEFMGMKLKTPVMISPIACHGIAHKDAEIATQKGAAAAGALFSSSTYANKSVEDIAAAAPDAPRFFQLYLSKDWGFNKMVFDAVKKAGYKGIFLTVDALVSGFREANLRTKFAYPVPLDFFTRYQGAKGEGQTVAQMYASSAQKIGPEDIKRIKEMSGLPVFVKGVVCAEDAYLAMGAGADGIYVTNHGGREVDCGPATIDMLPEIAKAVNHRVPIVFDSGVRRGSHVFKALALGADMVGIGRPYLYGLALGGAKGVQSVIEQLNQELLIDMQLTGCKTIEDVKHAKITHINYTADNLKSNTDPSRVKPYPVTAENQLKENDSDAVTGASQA
The description is as above. Type of data set: biochemical. As to conditions: L-lactate 0.125 to 64 mM, DCIP 120 μM, 11 mM PBS pH 7.4, 30° C.

Data set [3] concerns the target T3, Gilliamella bombicola lactate dehydrogenase GbLDH, SEQ ID NO: 73, N-terminal 6xHis/HRV 3C tag (SEQ ID NO: 250) (Gilliamella bombicola, UniProt A0A1C4CJ33).
T3 sequence (A0A1C4CJ33 1-365): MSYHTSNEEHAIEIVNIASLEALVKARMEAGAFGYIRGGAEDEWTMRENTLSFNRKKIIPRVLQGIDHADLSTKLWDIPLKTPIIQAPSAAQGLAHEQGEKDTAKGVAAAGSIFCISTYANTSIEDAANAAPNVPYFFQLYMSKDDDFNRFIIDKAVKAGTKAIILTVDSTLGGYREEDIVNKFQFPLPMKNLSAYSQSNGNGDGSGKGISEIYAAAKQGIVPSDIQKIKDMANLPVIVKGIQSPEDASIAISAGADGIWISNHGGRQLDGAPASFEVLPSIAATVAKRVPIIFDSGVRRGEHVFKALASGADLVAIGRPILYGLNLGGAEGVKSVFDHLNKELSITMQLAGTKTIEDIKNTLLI
The description is as above. Format: biochemical. As to conditions: L-lactate 0.125 to 64 mM, DCIP 120 μM, 11 mM PBS pH 7.4, 30° C.

In data set [4] the test system is Shigella sp. FC1655 lactate dehydrogenase SsLDH, SEQ ID NO: 74, predicted signal peptide removed, N-terminal 6xHis/HRV 3C tag (SEQ ID NO: 250). As to conditions: apparent, L-lactate 0.125 to 64 mM, DCIP 120 μM, 11 mM PBS pH 7.4, 30° C.
In data set [5] the target is T4, Pediococcus acidilactici lactate dehydrogenase PaLDH (PaLCTO), native form, SEQ ID NO: 2 (Pediococcus acidilactici, UniProt E0NE46).
T4 sequence (E0NE46 1-369): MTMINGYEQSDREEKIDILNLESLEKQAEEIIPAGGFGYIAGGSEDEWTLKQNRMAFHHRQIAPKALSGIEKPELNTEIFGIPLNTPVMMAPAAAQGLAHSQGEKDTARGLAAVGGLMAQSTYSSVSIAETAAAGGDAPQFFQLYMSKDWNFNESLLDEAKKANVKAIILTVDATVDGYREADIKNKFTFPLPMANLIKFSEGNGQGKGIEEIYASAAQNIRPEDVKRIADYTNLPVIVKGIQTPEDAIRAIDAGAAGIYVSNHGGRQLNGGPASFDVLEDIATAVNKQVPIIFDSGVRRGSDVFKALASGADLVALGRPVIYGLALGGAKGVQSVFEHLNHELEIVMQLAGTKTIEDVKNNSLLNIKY
The note with it: apparent; L-lactate 4 to 500 mM; DCIP 120 μM; 11 mM PBS pH 7.4, 30° C.; per monomeric mass.

The next data set concerns C[C@H](O)C(=O)O. The data set is described as follows: purified protein, by the assay type. The note with it: other: apparent, L-lactate 0.125 to 64 mM, DCIP 120 μM, 11 mM PBS pH 7.4, 30° C.

For `C[C@H](O)C(=O)O` [L-lactate], the Km in data set [1] is 1.35 ± 0.18 mM; in data set [2], 0.52 ± 0.09 mM; in data set [3], 16.9 ± 2.5 mM; in data set [4] it was 5.67 ± 1.24 mM. For the same molecule, the kcat was 47.2 ± 2.0 s⁻¹ in data set [1] (per monomeric mass); 102 ± 8 s⁻¹ in data set [2] (per monomeric mass); 207 ± 29 s⁻¹ in data set [3] (per monomeric mass); 107 ± 10 s⁻¹ in data set [4] (per monomeric mass); 61.8 ± 8.5 s⁻¹ in data set [5].

Regarding “Enterococcus avium lactate dehydrogenase EaLDH, SEQ ID NO: 155, N-terminal 6xHis/HRV 3C tag (SEQ ID NO: 250) (Enterococcus avium ATCC 14025)”, in the data set with C[C@H](O)C(=O)O, the Km turned out to be 21.6 ± 2.2 mM, the kcat came out at 94 ± 7.8 s⁻¹ and the kcat/Km was found to be 4350 M⁻¹ s⁻¹.
